This passage reports lnK results from article PMC10380446, “The Electronic Effects of 3-Methoxycarbonylcoumarin Substituents on Spectral, Antioxidant, and Protein Binding Properties” (International Journal of Molecular Sciences, 2023).

This assay addresses T1, bovine serum albumin (BSA) (Bos taurus, UniProt P02769).
T1 construct: gene ALB; mature secreted protein
In words: tryptophan fluorescence quenching, excitation […] nm. The class given is binding. Conditions: double-log, natural logarithm of K, PBS, 300 K.

T1 sequence (P02769 25-607): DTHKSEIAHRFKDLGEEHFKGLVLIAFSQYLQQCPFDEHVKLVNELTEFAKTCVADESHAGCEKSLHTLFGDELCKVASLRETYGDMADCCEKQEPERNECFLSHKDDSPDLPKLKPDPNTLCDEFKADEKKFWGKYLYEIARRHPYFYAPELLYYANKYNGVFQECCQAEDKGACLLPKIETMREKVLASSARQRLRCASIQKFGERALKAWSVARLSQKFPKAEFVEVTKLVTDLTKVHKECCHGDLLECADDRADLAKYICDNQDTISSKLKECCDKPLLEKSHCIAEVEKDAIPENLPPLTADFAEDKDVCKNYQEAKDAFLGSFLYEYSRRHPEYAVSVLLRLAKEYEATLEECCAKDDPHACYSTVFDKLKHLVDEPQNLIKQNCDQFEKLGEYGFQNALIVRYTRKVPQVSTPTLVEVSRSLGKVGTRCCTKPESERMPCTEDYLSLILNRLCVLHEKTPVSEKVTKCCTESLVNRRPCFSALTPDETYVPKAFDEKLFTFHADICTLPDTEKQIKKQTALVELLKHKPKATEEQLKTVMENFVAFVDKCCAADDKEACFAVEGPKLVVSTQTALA

Turning to `COC(=O)c1cc2cc(Br)ccc2oc1=O` [6-Br], the lnK was 9.78 ln (M^-1 not printed).

As for `COC(=O)c1cc2cc([N+](=O)[O-])ccc2oc1=O` [6-NO2], the lnK is 9.03 ln (M^-1 not printed).

In the case of `COC(=O)c1cc2cc(OC)ccc2oc1=O` [6-OMe], where the note is “covalent (suspected by the authors from new 480 nm peak), unreliable”, the lnK is 12.62 ln (M^-1 not printed).
